Assay results published in patent publication US20040072801A1, “Sterols bearing pendant allosteric effectors of hemoglobin, and uses thereof” (priority 2002, published 2004).
Several values for one entry are separate records, joined by “and”; a condition that tells them apart may be missing. Equal values may be shown once. Entries after “also recorded” stand apart in the source; their conditions may differ. Read-outs that look alike come from different tables or passages of the source.

Columns and labels:
stripped hemoglobin = stripped hemoglobin (Homo sapiens, UniProt P68871); settings: pH 7.4, cited from earlier work
[1] = system: human RBCs in whole blood; experiment: P50 of RBCs after in vitro incubation of human whole blood with effector (Hemox Analyzer); settings: for lysis of red blood cells (hemolysis): tested on whole blood; for P50 Increase % / P50 mm HG EFF:WB: EFF:WB 1:1.5; for lysis of the RBC: physiological or nearly physiological osmotic pressure, in vitro whole blood
human RBCs = settings: large-volume continuous-flow electroporation; cited from earlier work
[2] = system: mouse RBCs in whole blood; experiment: P50 of RBCs after in vitro incubation of mouse whole blood with effector (Hemox Analyzer); assay type: cell-based; settings: for P50 Increase %: mouse WB
C57B1/6 mice [3] = experiment: Tolerability and pharmacodynamics of SV184 and SV192 after iv injection; assay type: in vivo, mouse
C57B1/6 mice [4] = experiment: as above; assay type: in vivo, mouse; settings: for toxicity upon iv injection in mice: 30 mM effector solution; for shift of P50 in blood of surviving mice: less than 200 μL iv, blood taken 4 and 24 hours after injection
Protocol: The tolerability and pharmacodynamics of the compounds SV184 and SV192 were tested in a small number of C57B1/6 mice. Mice receiving the whole volume of 200 μL of (30 mM) effector solution died immediately after injection or during injection (injection time 10-20 min). Eight mice receiving less than 200 μL of the compound solution survived. These mice were fast breathing and shaking, but recovered after 4 hours. […] Therefore, new derivatives were synthesized in our labs.

Free Hemoglobin = Free Hemoglobin (Homo sapiens, UniProt P68871); experiment: P50 of free hemoglobin with effector (Table 1); assay type: biochemical; settings: ratio 1:1 (2.5 mM:2.5 mM), pH 7.1-7.2, 37° C.
Excerpt: The sample chamger contained:

[5] = biological target: T1, C57B1/6 mice free hemoglobin (Mus musculus, UniProt P02088); experiment: P50 of mouse free hemoglobin after incubation with KF effectors; assay type: biochemical; settings: effector 2.5 mM : mouse hemoglobin 2.5 mM, 1:1; pH 7.0
T1 construct: P50 values of C57B1/6 mice free hemoglobin after incubation with; from tissue; host or cells: blood of C57Bl/6 mice (inferred; the preparation is not described)
Protocol: The pH of the compound solutions was adjusted to approximately 7.1 and effector solution (2.5 mM) and mouse hemoglobin (2.5 mM) were mixed at 1:1 ratio. The osmolarity was adjusted to 218-310 mOsM. Effectors and whole blood (WB) at 1:1.5 were incubated at 37° C. for 60 minutes.
They were tested for P50 right shift with mouse hemoglobin. The pH was adjusted to approximately 7.0 and effector solution (2.5 mM) and mouse hemoglobin (2.5 mM) were mixed at 1:1 ratio. P50 values were measured as before.

C57B1/6 mice [6] = system: C57B1/6 mice
mice RBC = assay type: in vivo; settings: ip 30, 45 and 60 mM; three hours after injection
Protocol: Three hours after injection, samples of blood were taken for P50 measurements. […] We have observed the shift of the P50 values in the blood from the injected animals over 3 days.
The P50 shift of RBC is similar to iv injections at concentrations of 30 and 45 mM.

[7] = EFF:WB 1:0.375, 224 mOsM, 30 mM
[8] = iv 200 μL of 30 mM, 1 mouse injected
[9] = EFF:WB 1:0.375, 220 mOsM, 30 mM

Sequence of stripped hemoglobin (P69905 2-142 partner limits assumed): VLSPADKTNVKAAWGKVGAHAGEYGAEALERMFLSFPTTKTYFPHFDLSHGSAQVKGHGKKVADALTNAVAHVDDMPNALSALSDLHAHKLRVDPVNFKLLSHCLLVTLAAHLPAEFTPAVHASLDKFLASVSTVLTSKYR
Sequence of stripped hemoglobin (P68871 2-147 limits assumed): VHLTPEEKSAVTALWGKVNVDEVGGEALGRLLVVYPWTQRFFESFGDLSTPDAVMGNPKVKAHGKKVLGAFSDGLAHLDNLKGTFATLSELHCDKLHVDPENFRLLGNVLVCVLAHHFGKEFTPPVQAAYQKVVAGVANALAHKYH
T1 sequence (P01942 2-142 partner limits assumed): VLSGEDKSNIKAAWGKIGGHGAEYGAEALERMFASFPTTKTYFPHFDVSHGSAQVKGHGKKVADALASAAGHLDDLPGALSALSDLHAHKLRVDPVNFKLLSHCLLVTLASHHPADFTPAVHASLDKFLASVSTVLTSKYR
T1 sequence (P02088 2-147 limits assumed): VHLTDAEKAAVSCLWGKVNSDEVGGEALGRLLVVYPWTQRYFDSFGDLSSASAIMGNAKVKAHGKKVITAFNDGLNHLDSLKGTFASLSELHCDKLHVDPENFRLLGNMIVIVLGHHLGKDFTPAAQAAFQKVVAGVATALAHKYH
Sequence of Free Hemoglobin (P69905 2-142 partner limits assumed): as the sequence (P69905 2-142 partner limits assumed) above
Sequence of Free Hemoglobin (P68871 2-147 limits assumed): as the sequence (P68871 2-147 limits assumed) above

O=C(O)C(COP(=O)(O)O)OP(=O)(O)O (centres unmarked) [2,3-Diphosphoglycerate]
O2 half-saturation pressure P(O2)(½) of stripped hemoglobin (stripped hemoglobin; 25 C, without effector 4.3): 12.0 mm Hg | O2 half-saturation pressure P(O2)(½) of stripped hemoglobin (stripped hemoglobin; 37 C, without effector 9.3): 23.7 mm Hg

CC(C)CCCC(C)C1CCC2C3CC=C4CC(OC(=O)OP(=O)(O)OC5C(OP(=O)(O)O)C(OP(=O)(O)O)C(OP(=O)(O)O)C(OP(=O)(O)O)C5OP(=O)(O)O)CCC4(C)C3CCC12C.CCCCN(CCCC)CCCC.CCCCN(CCCC)CCCC.CCCCN(CCCC)CCCC.CCCCN(CCCC)CCCC.CCCCN(CCCC)CCCC.CCCCN(CCCC)CCCC (centres unmarked) [Effector 2a, Inositol hexaphosphate-cholesteroloxycarbonyl, hexa tributyl-ammonium salt]
lysis of red blood cells (hemolysis) [1]: triggered the lysis of the red blood cells

O=P(O)(O)O[C@H]1[C@H](OP(=O)(O)O)[C@@H](OP(=O)(O)O)[C@H](OP(=O)(O)O)[C@@H](OP(=O)(O)O)[C@H]1OP(=O)(O)O [IHP, inositol hexaphosphate]
P50 of human RBCs with encapsulated IHP (human RBCs): approximately 50 torr | O2 half-saturation pressure P(O2)(½) of stripped hemoglobin (stripped hemoglobin; 25 C, without effector 4.3): 48.4 mm Hg | O2 half-saturation pressure P(O2)(½) of stripped hemoglobin (stripped hemoglobin; 37 C, without effector 9.3): 96.4 mm Hg

CC(C)CCCC(C)C1CCC2C3CC=C4CC(OC(=O)OP(=O)([O-])OC5C(OP(=O)([O-])[O-])C(OP(=O)([O-])[O-])C(OP(=O)([O-])[O-])C(OP(=O)([O-])[O-])C5OP(=O)([O-])[O-])CCC4(C)C3CCC12C.[Na+].[Na+].[Na+].[Na+].[Na+].[Na+].[Na+].[Na+].[Na+].[Na+].[Na+] (centres unmarked) [SV184, Inositol hexaphosphate-cholesteroloxycarbonyl, undecanyl sod ium salt]
P50 mm HG EFF:WB [2, 7]: 44.3 mm Hg | P50 mm HG EFF:WB ([2]; EFF:WB 1:1.5, 310 mOsM, 30 mM): 41.8 mm Hg | P50 Increase % [2, 7]: 15% | P50 Increase % ([2]; EFF:WB 1:1.5, 310 mOsM, 30 mM): 9% | Shift of P50 % (C57B1/6 mice [3]; iv 150 μL of 30 nM): <5% | Number of mice died (C57B1/6 mice [3]; iv 150 μL of 30 mM, 4 mice injected): 0 | Number of mice died (C57B1/6 mice [3]; [8]): 1 | P50 (FIG. 2, Curve B) (C57B1/6 mice [4]; IV, WB mouse, 1 h, saline control P50=33.3): 41.0 | % increase of P50 (FIG. 2) (C57B1/6 mice [4]; IV, WB mouse, 1 h, versus saline control): 23.12% | toxicity upon iv injection in mice (C57B1/6 mice [4]): high level of toxicity | shift of P50 in blood of surviving mice (C57B1/6 mice [4]): did not show a significant shift of P50 | P50 Increase % ([1]; human WB, 232 mOsM, 30 mM): 16% | P50 mm HG EFF:WB ([1]; human WB, 232 mOsM, 30 mM): 30.4 mm Hg | P50 mm HG EFF:WB ([1]; human WB, 310 mOsM, 30 mM): 30 mm Hg

CC(C)CCCC(C)C1CCC2C3CC=C4CC(OC(=O)OP(=O)(O)OC5C(OP(=O)(O)O)C(OP(=O)(O)O)C(OP(=O)(O)O)C(OP(=O)(O)O)C5OP(=O)(O)O)CCC4(C)C3CCC12C.CN(C)C1CCCCC1.CN(C)C1CCCCC1.CN(C)C1CCCCC1.CN(C)C1CCCCC1.CN(C)C1CCCCC1.CN(C)C1CCCCC1.CN(C)C1CCCCC1.CN(C)C1CCCCC1 (centres unmarked) [SV192, Inositol hexaphosphate-cholesteroloxycarbonyl, octa N,N-dimethyl-cyclohexylammonium salt]
Shift of P50 % (C57B1/6 mice [3]; iv 135 μL of 30 nM): <3% | Number of mice died (C57B1/6 mice [3]; iv 135 μL of 30 mM, 2 mice injected): 0 | Number of mice died (C57B1/6 mice [3]; iv 165 μL of 30 mM, 2 mice injected): 2 | Number of mice died (C57B1/6 mice [4]; [8]): 1 | toxicity upon iv injection in mice (C57B1/6 mice [4]): high level of toxicity | shift of P50 in blood of surviving mice (C57B1/6 mice [4]): did not show a significant shift of P50 | lysis of RBC on incubation ([1]; human WB, EFF:WB 1:0.375, 224 mOsM, 30 mM): Lyses; also recorded: lysis | P50 Increase % ([1]; human WB, 224 mOsM, 30 mM): 26% | P50 mm HG EFF:WB ([1]; human WB, 224 mOsM, 30 mM): 29.5 mm Hg | P50 Increase % ([1]; human WB, 310 mOsM, 30 mM): 25% | P50 mm HG EFF:WB ([1]; human WB, 310 mOsM, 30 mM): 30 mm Hg | lysis of the RBC [1]: no lysis | lysis of red blood cells (hemolysis) ([1]; listed as 2b): did not trigger hemolysis | lysis of red blood cells (hemolysis) ([1]; listed as IHP-cholesterol derivative with N,N-dimethyl-cyclohexylammonium countercations): without any detectable cell lysis | P50 mm Hg EFF:WB (fHb) (Free Hemoglobin): 32.5 mm Hg

CC(C)CCCC(C)C1CCC2C3CC=C4CC(OC(=O)OP(=O)(O)OC5C(OP(=O)(O)O)C(OP(=O)(O)O)C(OP(=O)(O)O)C(OP(=O)(O)O)C5OP(=O)(O)O)CCC4(C)C3CCC12C.CN(C)C1CCCCC1.CN(C)C1CCCCC1.CN(C)C1CCCCC1.CN(C)C1CCCCC1.CN(C)C1CCCCC1.CN(C)C1CCCCC1.CN(C)C1CCCCC1.CN(C)C1CCCCC1 (centres unmarked) [SV192bis]
P50 Increase % ([1]; human WB, 220 mOsM, 30 mM): 6% | P50 mm HG EFF:WB ([1]; human WB, 220 mOsM, 30 mM): 26.6 mm Hg | P50 Increase % ([1]; human WB, 272 mOsM, 30 mM): 6% | P50 mm HG EFF:WB ([1]; human WB, 272 mOsM, 30 mM): 24 mm Hg | P50 Increase % ([1]; human WB, 306 mOsM, 30 mM): 13% | P50 mm HG EFF:WB ([1]; human WB, 306 mOsM, 30 mM): 28.3 mm Hg | lysis of the RBC [1]: no lysis

CC(C)CCCC(C)C1CCC2C3CC=C4CC(OC(=O)OP(=O)(O)OC5C(OP(=O)(O)O)C(OP(=O)(O)O)C(OP(=O)(O)O)C(OP(=O)(O)O)C5OP(=O)(O)O)CCC4(C)C3CCC12C.CN(C)C1CCCCC1.CN(C)C1CCCCC1.CN(C)C1CCCCC1.CN(C)C1CCCCC1.CN(C)C1CCCCC1.CN(C)C1CCCCC1.CN(C)C1CCCCC1.CN(C)C1CCCCC1 (centres unmarked) [SV192ter]
P50 mm HG EFF:WB [2, 9]: 46.4 mm Hg | P50 mm HG EFF:WB ([2]; EFF:WB 1:1.5, 264 mOsM, 15 mM): 42.2 mm Hg | P50 mm HG EFF:WB ([2]; EFF:WB 1:1.5, 276 mOsM, 30 mM): 43.5 mm Hg | P50 mm HG EFF:WB ([2]; EFF:WB 1:1.5, 283 mOsM, 5 mM): 43.1 mm Hg | P50 mm HG EFF:WB ([2]; EFF:WB 1:1.5, 314 mOsM, 60 mM): 43.1 mm Hg | P50 mm HG EFF:WB ([2]; EFF:WB 1:1.5, 320 mOsM, 30 mM): 41.4 mm Hg and 43.4 mm Hg and 41.9 mm Hg | P50 mm HG EFF:WB ([2]; EFF:WB 1:1.5, 320 mOsM, 50 mM): 42.6 mm Hg | P50 Increase % [2, 9]: 8% | P50 Increase % ([2]; EFF:WB 1:1.5, 264 mOsM, 15 mM): 2% | P50 Increase % ([2]; EFF:WB 1:1.5, 276 mOsM, 30 mM): 5% | P50 Increase % ([2]; EFF:WB 1:1.5, 283 mOsM, 5 mM): 7% | P50 Increase % ([2]; EFF:WB 1:1.5, 314 mOsM, 60 mM): 4% | P50 Increase % ([2]; EFF:WB 1:1.5, 320 mOsM, 30 mM): 8% and 13% and 9% | P50 Increase % ([2]; EFF:WB 1:1.5, 320 mOsM, 50 mM): 5% | P50 Increase % ([1]; human WB, 202 mOsM, 30 mM): 5% | P50 mm HG EFF:WB ([1]; human WB, 202 mOsM, 30 mM): 26.3 mm Hg | P50 Increase % ([1]; human WB, 258 mOsM, 30 mM): 2% | P50 mm HG EFF:WB ([1]; human WB, 258 mOsM, 30 mM): 25.6 mm Hg | P50 Increase % ([1]; human WB, 274 mOsM, 30 mM): 3% | P50 mm HG EFF:WB ([1]; human WB, 274 mOsM, 30 mM): 26.8 mm Hg | P50 Increase % ([1]; human WB, 303 mOsM, 30 mM): 4% | P50 mm HG EFF:WB ([1]; human WB, 303 mOsM, 30 mM): 26.2 mm Hg | lysis of the RBC [1]: no lysis

Inositol hexaphosphate-cholesteroloxycarbonyl, hepta N,N-dimethyl-cyclohexylammonium salt [KF16]
P50 mm Hg EFF:WB ([2]; 1:1.5, 283 mOsM, pH 7.1, 30 mM, 60 min 37° C.): 36.14 mm Hg | P50 Increase % [5]: 90% | P50 mm Hg EFF/fHb [5]: 52.17 mm Hg | P50 Increase % (C57B1/6 mice [6]; iv 200 μL of 60 mM, 2 h after injection): > 10% | right shift in P50 value at lower concentrations (C57B1/6 mice [6]; iv, concentrations lower than 60 mM): 6-9% | right shift of P50 after ip injection (mice RBC): strong right shift of P50
